# From publication PMC12796071, “Evaluation of [^18F]MNI-1054, a novel PET ligand for lysine-specific histone demethylase 1A (LSD1), in non-human primates” (EJNMMI Research, 2025)
# Test: Arterial plasma radiometabolite analysis (parent fraction) during PET
# Type: in vivo, rhesus monkeys (macaca mulatta)
# Details: for parent fraction in arterial plasma: across baseline and blocking studies
# Experimental: All brain scans were collected over 3 h on a microPET Focus 220 PET scanner (Siemens), with injected doses in the range 167.61–185 MBq. A transmission scan with an external Germanium-68 source was performed prior to the emission scans to estimate attenuation correction coefficients. Discrete arterial blood samples (n = 18–21) were taken throughout the scans to measure the parent fraction, plasma free fraction as well as total plasma and whole-blood activity for tracer kinetic modeling. Detailed procedures are provided in the Supplement.
# To generate arterial input functions, [^18F]MNI-1054 parent fraction measurements in plasma were first fitted to a sum of decaying exponentials using the Levenberg-Marquardt algorithm. The total arterial plasma activity concentration measurements were then multiplied by the resulting continuous parent fractions to yield the final input functions for kinetic modeling.
# Arterial blood samples (1 mL or 3.5 mL) were drawn at 0.75, 1.5, 2.25, 3, 3.75, 4, 5, 6, 8, 10, 15, 20, 25, 30, 45, 60, 90, 120, 150, and 180 min post-injection to measure parent fraction, total plasma and whole blood activity. The larger samples were drawn for analysis of parent fraction. Aliquots of 200 µL of whole blood were counted in a gamma counter (Wallac 2480 Wizard^2® Automatic Gamma Counter, Perkin-Elmer, Waltham, Massachusetts) for 1 min (400-1400 keV window). All blood samples were centrifuged for 10 min at 3,000 g and the plasma separated. Aliquots of 200 µL of plasma were counted in the gamma counter for 1 min (400-1400 keV window).
# The fraction of unchanged radiotracer in plasma was determined by HPLC at selected time points. […] Sample vials and pellets were counted in the gamma counter for 1 min to calculate the extraction percentage. Gamma chromatograms were analyzed by integration of all radioactive peaks. The percentage of parent compound was calculated by dividing the area under the peak representing parent compound by the sum of the area of all radioactive peaks.
smiles,measurement,setting,value
Cc1cc([18F])ncc1C(=O)Nc1ccc([C@@H]2C[C@H]2NCC2CC2)cc1 [[^18F]MNI-1054],parent fraction in arterial plasma,30 min post-injection,~ 42%
same,parent fraction in arterial plasma,180 min post-injection,~ 14%
same,"parent fraction and parent-in-plasma activity concentration levels, higher in self-block study",self-block study (3 mg/kg cold MNI-1054) versus other studies,about 20%
